Test results taken from US10023922B2, “Reporter of genomic methylation and uses thereof” (Whitehead Institute for Biomedical Research, priority 2015, dated 2018).

Test system: Gapdh and Dazl reporter constructs
Assay: In vitro methylation of reporter plasmids, checked by bisulfite conversion, PCR amplification and sequencing
Type: biochemical
Settings: FIGS. 2A and 2B
Description: Conversely, we were interested to assess whether a methylated and silent donor Snrpn promoter can be reactivated by means of demethylation acquired in vivo. For this we used the CpG methyltransferase M.SssI to in vitro methylate both Gapdh and Dazl reporter constructs.
Bisulfite conversion of DNA was established using the EpiTect Bisulfite Kit (Qiagen) following the manufacturer's instructions. The resulting modified DNA was amplified by first round of nested PCR, following a second round using loci specific PCR primers (see complete list of primers below). The first round of nested PCR was done as follows: 94° C. for 4 min; 55° C. for 2 min; 72° C. for 2 min; Repeat steps 1-3 1×; 94° C. for 1 min; 55° C. for 2 min; 72° C. for 2 min; Repeat steps 5-7 35×; 72° C. for 5 min; Hold 12° C. The second round of PCR was as followed: 95° C. for 4 min; 94° C. for 1 min; 55° C. for 2 min; 72° C. for 2 min; Repeat steps 2-4 35×; 72° C. for 5 min; Hold 12° C. The resulting amplified products were gel-purified, subcloned into A pCR2.1-TOPO-TA cloning vector (Life Technologies), and sequenced.

“M.SssI: CpG methyltransferase used to in vitro methylate reporter constructs” was tested, and the “methylation of CGI and Snrpn promoter regions of the treated plasmids” value was “complete hypermethylation”.
